Data: article PMC6199744, “Development of Chemical Proteomics for the Folateome and Analysis of the Kinetoplastid Folateome” (ACS Infectious Diseases, 2018)
Read-outs that look alike come from different tables or passages of the source.

Legend:
Type in all cases: binding
[1] = target: T1, HeLa cell extract proteins (Homo sapiens, UniProt Q99570)
T1 construct: endogenous in cells; host or cells: HeLa cell extract

[2] = target: T2, HeLa cell extract proteins (Homo sapiens, UniProt P12004)
T2 construct: endogenous in cells; host or cells: HeLa cell extract

[3] = target: T3, HeLa cell extract proteins (Homo sapiens, UniProt P13667)
T3 construct: endogenous in cells; host or cells: HeLa cell extract
T3 sequence (P13667 21-645): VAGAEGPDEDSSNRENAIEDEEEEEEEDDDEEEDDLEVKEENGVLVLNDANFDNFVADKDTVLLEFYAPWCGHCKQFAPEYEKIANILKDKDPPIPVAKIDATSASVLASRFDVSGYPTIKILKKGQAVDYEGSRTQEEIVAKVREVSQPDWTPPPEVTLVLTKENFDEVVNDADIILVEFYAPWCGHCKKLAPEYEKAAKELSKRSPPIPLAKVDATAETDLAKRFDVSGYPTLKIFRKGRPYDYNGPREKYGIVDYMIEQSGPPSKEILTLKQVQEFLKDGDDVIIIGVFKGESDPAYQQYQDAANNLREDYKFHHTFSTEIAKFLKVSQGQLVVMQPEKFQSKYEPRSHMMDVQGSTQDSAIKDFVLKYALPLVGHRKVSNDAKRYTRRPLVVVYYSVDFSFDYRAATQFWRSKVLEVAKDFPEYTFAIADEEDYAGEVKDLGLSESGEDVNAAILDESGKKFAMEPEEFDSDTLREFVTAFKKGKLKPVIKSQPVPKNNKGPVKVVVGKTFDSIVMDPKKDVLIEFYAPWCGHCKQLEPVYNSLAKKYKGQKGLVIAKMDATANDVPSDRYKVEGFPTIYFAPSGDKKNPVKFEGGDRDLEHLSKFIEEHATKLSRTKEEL

[4] = target: T4, HeLa cell extract proteins (Homo sapiens, UniProt P0DMV8)
T4 construct: endogenous in cells; host or cells: HeLa cell extract

[5] = target: T5, HeLa cell extract proteins (Homo sapiens, UniProt Q9H0U4)
T5 construct: endogenous in cells; host or cells: HeLa cell extract

[6] = target: T6, HeLa cell extract proteins (Homo sapiens, UniProt Q92973)
T6 construct: endogenous in cells; host or cells: HeLa cell extract
T6 sequence (Q92973 1-898): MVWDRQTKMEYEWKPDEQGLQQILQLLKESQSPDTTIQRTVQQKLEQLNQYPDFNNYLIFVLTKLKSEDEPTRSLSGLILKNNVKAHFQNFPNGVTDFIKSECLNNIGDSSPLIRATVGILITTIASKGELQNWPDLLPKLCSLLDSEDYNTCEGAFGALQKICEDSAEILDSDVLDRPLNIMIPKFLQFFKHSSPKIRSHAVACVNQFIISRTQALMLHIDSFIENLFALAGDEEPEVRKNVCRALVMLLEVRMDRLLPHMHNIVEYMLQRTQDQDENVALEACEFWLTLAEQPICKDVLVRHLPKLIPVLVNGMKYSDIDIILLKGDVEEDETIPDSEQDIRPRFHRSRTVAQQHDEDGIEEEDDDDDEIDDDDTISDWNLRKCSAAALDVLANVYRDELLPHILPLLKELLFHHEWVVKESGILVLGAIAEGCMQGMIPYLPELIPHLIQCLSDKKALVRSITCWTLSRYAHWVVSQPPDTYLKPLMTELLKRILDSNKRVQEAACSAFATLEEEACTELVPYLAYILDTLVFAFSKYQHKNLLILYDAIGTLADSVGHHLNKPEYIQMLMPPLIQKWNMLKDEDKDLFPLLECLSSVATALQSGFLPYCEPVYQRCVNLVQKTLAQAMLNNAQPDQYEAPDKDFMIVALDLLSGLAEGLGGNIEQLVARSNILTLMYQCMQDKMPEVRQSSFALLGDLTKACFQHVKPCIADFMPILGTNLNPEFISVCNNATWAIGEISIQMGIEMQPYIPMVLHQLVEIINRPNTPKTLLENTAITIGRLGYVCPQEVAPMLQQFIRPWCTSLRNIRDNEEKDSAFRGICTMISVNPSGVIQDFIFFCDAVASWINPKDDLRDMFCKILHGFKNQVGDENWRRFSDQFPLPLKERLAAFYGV

[7] = target: T7, HeLa cell extract proteins (Homo sapiens, UniProt P40939)
T7 construct: endogenous in cells; host or cells: HeLa cell extract

[8] = target: T8, HeLa cell extract proteins (Homo sapiens, UniProt Q14978)
T8 construct: endogenous in cells; host or cells: HeLa cell extract
T8 sequence (Q14978 1-699): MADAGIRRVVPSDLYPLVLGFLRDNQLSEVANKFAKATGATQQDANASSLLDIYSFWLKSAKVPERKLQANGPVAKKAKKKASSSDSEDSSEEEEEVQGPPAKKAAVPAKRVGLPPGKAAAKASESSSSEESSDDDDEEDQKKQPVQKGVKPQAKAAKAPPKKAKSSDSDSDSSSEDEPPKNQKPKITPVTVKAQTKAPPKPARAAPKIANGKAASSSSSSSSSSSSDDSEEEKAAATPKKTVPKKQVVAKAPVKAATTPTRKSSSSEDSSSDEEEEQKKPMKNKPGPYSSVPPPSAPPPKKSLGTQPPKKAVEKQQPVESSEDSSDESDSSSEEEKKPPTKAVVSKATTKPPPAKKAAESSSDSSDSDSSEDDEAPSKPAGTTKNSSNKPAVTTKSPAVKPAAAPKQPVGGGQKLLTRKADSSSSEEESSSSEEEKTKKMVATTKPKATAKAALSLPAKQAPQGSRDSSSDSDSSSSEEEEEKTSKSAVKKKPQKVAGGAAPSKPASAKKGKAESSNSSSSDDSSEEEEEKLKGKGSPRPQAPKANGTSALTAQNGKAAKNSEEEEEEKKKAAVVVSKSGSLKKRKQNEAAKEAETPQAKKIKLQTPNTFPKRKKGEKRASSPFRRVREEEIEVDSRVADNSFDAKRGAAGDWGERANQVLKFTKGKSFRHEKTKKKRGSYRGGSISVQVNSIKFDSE

[9] = target: T9, HeLa cell extract proteins (Homo sapiens, UniProt P07900)
T9 construct: endogenous in cells; host or cells: HeLa cell extract

[10] = target: T10, HeLa cell extract proteins (Homo sapiens, UniProt Q92616)
T10 construct: endogenous in cells; host or cells: HeLa cell extract

[11] = target: T11, HeLa cell extract proteins (Homo sapiens, UniProt P60842)
T11 construct: endogenous in cells; host or cells: HeLa cell extract

[12] = HeLa, protein PDIA4 (PROTEIN DISULFIDE-ISOMERASE A4 PRECURSOR.)
[13] = HeLa, protein HSP90AA1 (HEAT SHOCK PROTEIN 90KDA ALPHA (CYTOSOLIC), CLASS A MEMBER 1 ISOFORM 1.)

T4 sequence (P0DMV8 whole entry): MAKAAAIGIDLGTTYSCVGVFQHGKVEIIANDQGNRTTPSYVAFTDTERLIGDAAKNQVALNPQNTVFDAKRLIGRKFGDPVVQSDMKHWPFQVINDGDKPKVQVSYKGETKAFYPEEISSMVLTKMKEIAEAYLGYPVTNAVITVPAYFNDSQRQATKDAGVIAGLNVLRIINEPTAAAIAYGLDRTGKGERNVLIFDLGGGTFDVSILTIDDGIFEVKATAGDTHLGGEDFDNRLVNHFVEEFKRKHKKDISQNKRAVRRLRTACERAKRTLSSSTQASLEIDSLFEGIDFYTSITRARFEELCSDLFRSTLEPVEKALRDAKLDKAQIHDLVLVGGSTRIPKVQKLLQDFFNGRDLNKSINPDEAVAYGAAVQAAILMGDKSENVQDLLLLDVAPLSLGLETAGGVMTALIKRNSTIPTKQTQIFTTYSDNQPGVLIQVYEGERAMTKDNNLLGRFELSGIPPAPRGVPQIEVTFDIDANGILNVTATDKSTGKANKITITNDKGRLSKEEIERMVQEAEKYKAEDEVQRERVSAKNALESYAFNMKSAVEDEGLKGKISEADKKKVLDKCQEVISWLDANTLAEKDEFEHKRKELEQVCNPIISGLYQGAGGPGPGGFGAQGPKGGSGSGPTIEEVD
T7 sequence (P40939 37-763): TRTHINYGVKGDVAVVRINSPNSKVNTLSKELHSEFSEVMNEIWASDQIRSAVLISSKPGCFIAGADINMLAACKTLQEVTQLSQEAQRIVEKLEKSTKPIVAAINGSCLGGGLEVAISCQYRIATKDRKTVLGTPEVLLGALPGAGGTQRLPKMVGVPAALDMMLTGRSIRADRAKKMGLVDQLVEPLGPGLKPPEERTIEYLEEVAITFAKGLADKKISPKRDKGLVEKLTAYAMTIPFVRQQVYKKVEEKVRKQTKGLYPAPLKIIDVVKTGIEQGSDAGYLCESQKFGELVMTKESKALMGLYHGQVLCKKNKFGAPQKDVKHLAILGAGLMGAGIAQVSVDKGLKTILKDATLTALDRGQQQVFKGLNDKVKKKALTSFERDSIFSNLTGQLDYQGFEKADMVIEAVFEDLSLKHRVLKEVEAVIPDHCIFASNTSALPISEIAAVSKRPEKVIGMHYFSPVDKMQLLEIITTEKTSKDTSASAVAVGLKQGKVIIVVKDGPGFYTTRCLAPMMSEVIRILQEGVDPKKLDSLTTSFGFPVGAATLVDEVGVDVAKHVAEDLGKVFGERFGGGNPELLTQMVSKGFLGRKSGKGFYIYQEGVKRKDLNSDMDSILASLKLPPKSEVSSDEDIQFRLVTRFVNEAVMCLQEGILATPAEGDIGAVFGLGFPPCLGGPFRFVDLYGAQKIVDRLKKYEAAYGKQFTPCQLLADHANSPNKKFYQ
T5 sequence (Q9H0U4 whole entry): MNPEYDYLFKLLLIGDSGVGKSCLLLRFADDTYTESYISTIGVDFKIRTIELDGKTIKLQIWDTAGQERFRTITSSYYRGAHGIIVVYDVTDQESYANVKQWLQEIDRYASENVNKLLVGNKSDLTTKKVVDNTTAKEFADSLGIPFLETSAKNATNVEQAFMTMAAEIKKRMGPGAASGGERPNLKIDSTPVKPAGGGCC
T1 sequence (Q99570 whole entry): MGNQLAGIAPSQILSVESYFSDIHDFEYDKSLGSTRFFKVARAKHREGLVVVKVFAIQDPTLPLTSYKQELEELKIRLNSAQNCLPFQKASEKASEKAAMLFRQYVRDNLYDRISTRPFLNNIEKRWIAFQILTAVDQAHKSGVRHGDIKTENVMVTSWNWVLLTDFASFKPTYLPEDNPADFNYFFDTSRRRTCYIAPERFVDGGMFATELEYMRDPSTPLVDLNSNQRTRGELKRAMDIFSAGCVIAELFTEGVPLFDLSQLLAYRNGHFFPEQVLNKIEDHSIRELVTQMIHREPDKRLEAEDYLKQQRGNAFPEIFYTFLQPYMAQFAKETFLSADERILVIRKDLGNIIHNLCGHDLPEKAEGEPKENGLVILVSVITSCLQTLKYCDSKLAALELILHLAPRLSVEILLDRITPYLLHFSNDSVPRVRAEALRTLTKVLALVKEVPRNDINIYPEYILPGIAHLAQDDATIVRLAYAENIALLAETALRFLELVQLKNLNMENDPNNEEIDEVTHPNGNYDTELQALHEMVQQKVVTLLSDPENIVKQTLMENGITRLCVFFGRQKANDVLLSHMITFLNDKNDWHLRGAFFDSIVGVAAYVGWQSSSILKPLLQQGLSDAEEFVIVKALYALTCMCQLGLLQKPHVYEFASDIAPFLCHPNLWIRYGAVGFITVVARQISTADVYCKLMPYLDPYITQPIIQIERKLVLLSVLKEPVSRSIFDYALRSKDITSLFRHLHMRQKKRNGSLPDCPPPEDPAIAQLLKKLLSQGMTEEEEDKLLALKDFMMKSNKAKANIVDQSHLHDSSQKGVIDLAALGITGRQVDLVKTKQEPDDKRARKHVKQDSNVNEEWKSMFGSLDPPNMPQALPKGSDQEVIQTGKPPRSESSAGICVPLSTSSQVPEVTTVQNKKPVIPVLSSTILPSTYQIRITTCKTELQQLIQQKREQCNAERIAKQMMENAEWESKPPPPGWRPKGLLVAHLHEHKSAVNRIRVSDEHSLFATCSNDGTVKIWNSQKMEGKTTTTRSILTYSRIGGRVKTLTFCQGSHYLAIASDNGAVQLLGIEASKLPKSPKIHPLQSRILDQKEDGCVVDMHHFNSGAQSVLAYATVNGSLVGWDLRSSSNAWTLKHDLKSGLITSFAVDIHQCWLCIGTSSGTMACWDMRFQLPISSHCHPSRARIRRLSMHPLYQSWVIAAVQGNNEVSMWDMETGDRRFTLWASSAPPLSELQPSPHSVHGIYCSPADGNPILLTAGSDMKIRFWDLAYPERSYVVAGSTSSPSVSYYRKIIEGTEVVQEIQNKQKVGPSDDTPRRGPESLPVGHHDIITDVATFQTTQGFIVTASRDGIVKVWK
T11 sequence (P60842 whole entry): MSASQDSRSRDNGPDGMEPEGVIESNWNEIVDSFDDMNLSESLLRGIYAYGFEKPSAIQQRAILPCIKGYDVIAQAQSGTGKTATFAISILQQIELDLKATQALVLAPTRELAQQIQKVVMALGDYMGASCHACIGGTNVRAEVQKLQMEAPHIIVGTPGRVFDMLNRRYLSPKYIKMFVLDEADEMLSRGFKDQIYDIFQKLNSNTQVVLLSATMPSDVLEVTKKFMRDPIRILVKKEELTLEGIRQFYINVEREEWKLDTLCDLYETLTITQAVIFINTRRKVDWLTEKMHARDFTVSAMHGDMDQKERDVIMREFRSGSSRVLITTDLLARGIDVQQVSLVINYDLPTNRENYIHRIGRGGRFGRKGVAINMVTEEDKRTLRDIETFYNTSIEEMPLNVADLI
T2 sequence (P12004 whole entry): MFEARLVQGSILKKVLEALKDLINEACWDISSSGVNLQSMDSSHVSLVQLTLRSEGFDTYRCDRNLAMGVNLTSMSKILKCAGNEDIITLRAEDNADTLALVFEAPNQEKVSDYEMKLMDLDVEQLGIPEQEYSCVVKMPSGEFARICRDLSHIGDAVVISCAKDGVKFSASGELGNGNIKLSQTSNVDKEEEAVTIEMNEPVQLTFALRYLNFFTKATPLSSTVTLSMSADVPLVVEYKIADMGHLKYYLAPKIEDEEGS

Nc1nc2c(c(=O)[nH]1)N(C=O)C(CNc1ccc(C(=O)N[C@@H](CCC(=O)O)C(=O)O)cc1)CN2 (some centres unmarked) [LEU, leucovorin]
fold changes relative to vehicle control ([1]; HeLa, protein PIK3R4): 0.97
fold changes relative to vehicle control ([2]; HeLa, captured protein PCNA): 1.25
fold changes relative to vehicle control ([3]; protein PDIA4, HeLa): 0.93
fold changes relative to vehicle control ([4]; HeLa, captured protein HSPA1A): 1.02
fold changes relative to vehicle control ([5]; HeLa, protein RAB1B): 0.93
fold changes relative to vehicle control ([6]; HeLa, protein TNPO1): 0.98
fold changes relative to vehicle control ([7]; HeLa, protein HADHA): 0.9
fold changes relative to vehicle control ([8]; protein NOLC1, HeLa): 0.93
fold changes relative to vehicle control ([9]; HeLa, protein HSP90AA1): 1.06
fold changes relative to vehicle control ([10]; HeLa, captured protein GCN1L1): 1.04
fold changes relative to vehicle control ([11]; HeLa, protein EIF4A1): 0.99

Nc1nc2[nH]cc(CCc3ccc(C(=O)N[C@@H](CCC(=O)O)C(=O)O)cc3)c2c(=O)[nH]1 [PTX, pemetrexed]
fold changes relative to vehicle control [1]: 1.08
fold changes relative to vehicle control [2]: 1.29
fold changes relative to vehicle control [3]: 1.04
fold changes relative to vehicle control [4]: 0.98
fold changes relative to vehicle control [5]: 0.93
fold changes relative to vehicle control [6]: 0.94
fold changes relative to vehicle control [7]: 0.89
fold changes relative to vehicle control [8]: 0.87
fold changes relative to vehicle control [9]: 1.13
fold changes relative to vehicle control [10]: 1.02
fold changes relative to vehicle control [11]: 1.07

CCCCCCOc1ccc(Cc2cnc(N)nc2N)cc1 [compound 1]
fold changes relative to vehicle control ([1]; captured protein PIK3R4, HeLa): 1.03
fold changes relative to vehicle control ([2]; protein PCNA, HeLa): 1.18
fold changes relative to vehicle control [3, 12]: 1.76 fold
fold changes relative to vehicle control ([4]; protein HSPA1A, HeLa): 0.97
fold changes relative to vehicle control ([5]; protein RAB1B, HeLa): 1.14
fold changes relative to vehicle control ([6]; protein TNPO1, HeLa): 1.01
fold changes relative to vehicle control ([7]; protein HADHA, HeLa): 1
fold changes relative to vehicle control ([8]; protein NOLC1, HeLa): 0.9
fold changes relative to vehicle control [9, 13]: 1.4 fold
fold changes relative to vehicle control ([10]; HeLa, protein GCN1L1): 1.07
fold changes relative to vehicle control ([11]; protein EIF4A1, HeLa): 1.12

CCCCCCOc1cccc(Cc2cnc(N)nc2N)c1 [compound 2]
fold changes relative to vehicle control ([1]; captured protein PIK3R4, HeLa): 1.07
fold changes relative to vehicle control ([2]; protein PCNA, HeLa): 1.65
fold changes relative to vehicle control [3, 12]: 2.84 fold
fold changes relative to vehicle control ([4]; protein HSPA1A, HeLa): 1.09
fold changes relative to vehicle control ([5]; protein RAB1B, HeLa): 1.41
fold changes relative to vehicle control ([6]; protein TNPO1, HeLa): 1.1
fold changes relative to vehicle control ([7]; protein HADHA, HeLa): 1.45
fold changes relative to vehicle control ([8]; protein NOLC1, HeLa): 1.44
fold changes relative to vehicle control [9, 13]: 2.39 fold
fold changes relative to vehicle control ([10]; HeLa, protein GCN1L1): 1.14
fold changes relative to vehicle control ([11]; protein EIF4A1, HeLa): 1.75

Nc1nc2cccc(-c3ccccc3)c2n1Cc1ccc(Cl)c(Cl)c1 [compound 3]
fold changes relative to vehicle control ([1]; captured protein PIK3R4, HeLa): 0.95
fold changes relative to vehicle control ([2]; protein PCNA, HeLa): 0.77
fold changes relative to vehicle control [3, 12]: 0.75 fold
fold changes relative to vehicle control ([4]; protein HSPA1A, HeLa): 1
fold changes relative to vehicle control ([5]; protein RAB1B, HeLa): 1.09
fold changes relative to vehicle control ([6]; protein TNPO1, HeLa): 1
fold changes relative to vehicle control ([7]; protein HADHA, HeLa): 1.07
fold changes relative to vehicle control ([8]; protein NOLC1, HeLa): 0.96
fold changes relative to vehicle control [9, 13]: 0.94 fold
fold changes relative to vehicle control ([10]; HeLa, protein GCN1L1): 1.16
fold changes relative to vehicle control ([11]; protein EIF4A1, HeLa): 0.8

NCCOCCOCC(=O)Nc1nc2ncc(CNc3ccc(C(=O)NC(CCC(=O)O)C(=O)O)cc3)nc2c(=O)[nH]1 (centres unmarked) [compound 6]
fold changes relative to vehicle control ([1]; HeLa, protein PIK3R4): 1.2
fold changes relative to vehicle control ([2]; HeLa, captured protein PCNA): 1.47
fold changes relative to vehicle control ([3]; protein PDIA4, HeLa): 1.14
fold changes relative to vehicle control ([4]; HeLa, captured protein HSPA1A): 1
fold changes relative to vehicle control ([5]; HeLa, protein RAB1B): 0.98
fold changes relative to vehicle control ([6]; HeLa, protein TNPO1): 1.03
fold changes relative to vehicle control ([7]; HeLa, protein HADHA): 1.05
fold changes relative to vehicle control ([8]; protein NOLC1, HeLa): 0.96
fold changes relative to vehicle control ([9]; HeLa, protein HSP90AA1): 1.32
fold changes relative to vehicle control ([10]; HeLa, captured protein GCN1L1): 1.15
fold changes relative to vehicle control ([11]; HeLa, protein EIF4A1): 1.27

NCCCNc1ccc(C(=O)NC(CCC(=O)O)C(=O)O)cc1 (centres unmarked) [compound 7]
fold changes relative to vehicle control ([1]; HeLa, protein PIK3R4): 1.08
fold changes relative to vehicle control ([2]; HeLa, captured protein PCNA): 1.02
fold changes relative to vehicle control ([3]; protein PDIA4, HeLa): 0.87
fold changes relative to vehicle control ([4]; HeLa, captured protein HSPA1A): 0.99
fold changes relative to vehicle control ([5]; HeLa, protein RAB1B): 0.91
fold changes relative to vehicle control ([6]; HeLa, protein TNPO1): 0.99
fold changes relative to vehicle control ([7]; HeLa, protein HADHA): 0.99
fold changes relative to vehicle control ([8]; protein NOLC1, HeLa): 0.9
fold changes relative to vehicle control ([9]; HeLa, protein HSP90AA1): 0.92
fold changes relative to vehicle control ([10]; HeLa, captured protein GCN1L1): 1.15
fold changes relative to vehicle control ([11]; HeLa, protein EIF4A1): 0.89
